According to US11142548B2, “Agents that activate CD47 and their use in the treatment of inflammation” (SORBONNE UNIVERSITE, priority 2016, dated 2021):

Tests used:
[1] = system: recruited monocyte-derived inflammatory macrophages (recMφ); assay: Thioglycollate-induced peritonitis; type: in vivo, mouse; conditions: single intra-peritoneal injection at day 1, observed at day 2
Procedure: Mouse peritoneal exudate cells (PECs) were elicited by i.p. injection of 0,5 ml 3% thioglycollate (T9032, Sigma) into 10 weeks old male C57BL/6J and Cd47^−/− mice. After 1 day, PECs were isolated by flushing of the peritoneum with ice-cold PBS, Mφs were negatively selected by magnetic sorting following the manufacturers protocol (EasySep Mouse Monocyte Enrichment Kit, Stemcell Technologies), resuspended in X-VIVO 15 medium (Lonza), and plated in Lab-Tek® Chamber Slide™ (Nunc®).
To test whether CD47 influences inflammation resolution in other pathological contexts, a model of acute thioglycollate-induced peritonitis was used, characterized by an early accumulation of neutrophils, followed by recruited monocyte-derived inflammatory macrophages (recMφ), both experiencing an apoptosis-driven elimination at different kinetics (Gautier et al., Blood. 2013, 122:2714-2722).

microglial cells = assay: Subretinal adoptive transfer and clearance of CFSE-labeled microglial cells; type: in vivo, mouse; conditions: 24 h after subretinal transfer into wildtype mice, co-injected TSP1 10 μg/ml
Procedure: Microglial cells were prepared from PBS-perfused mice. After dissociation of brain or retina with Neural Dissociation Kit Papain (miltenyi Biotech), 70 μm filtered cell suspensions were washed and resuspended in 75% isotonic Percoll (Percoll Plus, GE Healthcare), overlayed with 25% Percoll and PBS. Cells were centrifuged at 1000 g for 30 min at […]. The ring at the 75%/25% interface was collected, washed with PBS and centrifuged.
According to Levy et al., (EMBO Mol Med. 2015, 7:211-226), brain microglia of the indicated mouse strains were sorted as describe above, labeled in 10 μM CFSE (Life Technologies), washed and resuspended in PBS, 12000 cells (4 μL) were injected using glass microcapillaries (Eppendorf) and a microinjector in the subretinal space of anesthetized 10-14 weeks old wildtype mice. A hole was pierced with the glass capillary prior to the subretinal injection to avoid intra-ocular pressure increase and to allow retinal detachment with 4 μL of solution. The subretinal injection was verified by fundoscopy. In specific experiments, cells were co-injected with recombinant human TSP1 (10 μg/ml, R&D Systems), Eyes were enucleated after 24 hours, fixed in PFA 4% 30 minutes and labeled with DAPI. Eyes with hemorrhages were discarded. CFSE+cells in the subretinal space were quantified on flatmounts on the RPE side of the retina and on the apical side of the RPE.

HTRA1 [2] = molecular target: T1, HTRA1 (Homo sapiens, UniProt Q92743); assay: HTRA1 cleavage sites of TSP1 by LC-MS/MS; type: biochemical; conditions: post-digestion fragments
T1 construct: purchased R & D
T1 sequence (Q92743 23-480): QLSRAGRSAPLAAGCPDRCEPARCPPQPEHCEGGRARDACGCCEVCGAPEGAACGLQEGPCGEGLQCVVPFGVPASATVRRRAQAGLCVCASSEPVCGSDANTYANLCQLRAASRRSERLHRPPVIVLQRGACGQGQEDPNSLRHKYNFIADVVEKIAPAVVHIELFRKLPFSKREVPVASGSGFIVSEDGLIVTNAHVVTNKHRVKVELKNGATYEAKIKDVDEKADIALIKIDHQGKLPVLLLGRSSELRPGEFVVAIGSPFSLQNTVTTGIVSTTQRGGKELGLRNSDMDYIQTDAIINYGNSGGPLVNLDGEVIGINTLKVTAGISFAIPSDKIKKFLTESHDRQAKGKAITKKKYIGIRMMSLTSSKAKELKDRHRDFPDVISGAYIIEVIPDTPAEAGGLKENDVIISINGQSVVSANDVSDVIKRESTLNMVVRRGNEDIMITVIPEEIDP
Procedure: Proteins were submitted to reduction by incubation with 5 mM dithiotreitol in 50 mM ammonium bicarbonate (AmBic) for 30 min at 37° C., then alkylation with 15 mM iodoacetamide in 50 mM AmBic for 30 min, RT. Tryptic digestion was performed with a protein/enzyme ratio of 25/1 at 37° C. overnight in 50 mM AmBic.
Peptide mixtures were supplemented with formic acid to a final concentration of 0.1% and analyzed on a U3000 nanoLC (Thermo) coupled to an HCTultra ion trap (Bruker). Peptides were concentrated and desalted for 5 min on a precolumm RP-C18 (5 mm, 300 μm i.d., 100 Å, Thermo) with a mobile phase A (2% ACN/0.1% formic acid) at a flow rate of 20 μL/min then separated on an analytical column RP-C18 (15 cm, 75 μm i.d., 100 Å, Dionex) at a flow rate of 300 nL/min. Elution gradient was run from 2% to 10% of solvent B (95% ACN/0.1% formic acid) in 10 min then 10% to 35% B in 60 min and 35% to 50% B in 10 min. The ion trap was used in the positive mode with the selection of 8 precursors from each MS spectrum for fragmentation by collision induced dissociation (CID). […]
Tryptic peptides were also analyzed by MALDI-TOF MS on an Autoflex speed (Bruker) in positive reflectron mode in the mass range 700-4000 m/z using α-Cyano-4-hydroxycinnamic acid as the matrix (0.9 mg/mL CHCA in 85% CAN, 0.1% TFA, 10 mM ammonium phosphate). […]

HTRA1 [3] = molecular target: T1, HTRA1; assay: Co-incubation of recombinant TSP1 or TSP2 with recombinant HTRA1 (Coomassie staining, Western blot); type: biochemical; conditions: co-incubation at 37° C. for 24 h, Coomassie gel
Procedure: WB analysis was performed using a monoclonal anti-TSP1 antibody (Abeam), as previously described (Houssier et al., PLoS Med. 2008, 5:e39). RT-PCRs primers were ordered from Taqman, reference: Hs01016151_m1.
Western blot analysis of the proteins confirmed the disappearance of the whole sized TSP1 and the appearance of several smaller bands in the co-incubated condition (FIG. 3A). […] Next the functionality of rTSP1 and HTRA1-digested TSP1 was analyzed in laser-induced subretinal inflammation in vivo. […] Accordingly, associated choroidal neovascularization, measured as the surface covered by CD102^−CNV on choroidal flatmounts at d7, underwent the same differences (FIG. 3D).

recombinant TSP1: recombinant human TSP1 (R&D Systems), natural ligand and agonist of CD47
elimination of recMφs [1]: significantly accelerated the elimination | elimination of Cd47-/- microglial cells (microglial cells; CFSE+ Cd47-/- microglial cells): no effect | elimination of Tsp1-/- microglial cells (microglial cells; CFSE+ Tsp1-/- microglial cells): reversed the phenotype | elimination of wildtype microglial cells (microglial cells; CFSE+ wildtype microglial cells): very significantly accelerated the elimination | distinct sites proteolyzed by HTRA1 (HTRA1 [2]): 5 sites | degradation by recombinant HTRA1 (HTRA1 [3]): degrades
